SMILES strings stand for the structures. Calls of active or inactive are those of the source. The rule behind the calls is not given here.

In one experiment the target is Dystrophin (Mus musculus) (UniProt P11531). Nature of the experiment: Induction of read through activity at dystrophin in mouse H2K mdx cells assessed as increase in production of full length dystrophin protein at 0.01 to 100 uM by MSD assay. Conditions: filed as activator, dose 0.01-100 µM. In kind it is cell-based.
Chain of Dystrophin (Mus musculus) (P11531 whole entry): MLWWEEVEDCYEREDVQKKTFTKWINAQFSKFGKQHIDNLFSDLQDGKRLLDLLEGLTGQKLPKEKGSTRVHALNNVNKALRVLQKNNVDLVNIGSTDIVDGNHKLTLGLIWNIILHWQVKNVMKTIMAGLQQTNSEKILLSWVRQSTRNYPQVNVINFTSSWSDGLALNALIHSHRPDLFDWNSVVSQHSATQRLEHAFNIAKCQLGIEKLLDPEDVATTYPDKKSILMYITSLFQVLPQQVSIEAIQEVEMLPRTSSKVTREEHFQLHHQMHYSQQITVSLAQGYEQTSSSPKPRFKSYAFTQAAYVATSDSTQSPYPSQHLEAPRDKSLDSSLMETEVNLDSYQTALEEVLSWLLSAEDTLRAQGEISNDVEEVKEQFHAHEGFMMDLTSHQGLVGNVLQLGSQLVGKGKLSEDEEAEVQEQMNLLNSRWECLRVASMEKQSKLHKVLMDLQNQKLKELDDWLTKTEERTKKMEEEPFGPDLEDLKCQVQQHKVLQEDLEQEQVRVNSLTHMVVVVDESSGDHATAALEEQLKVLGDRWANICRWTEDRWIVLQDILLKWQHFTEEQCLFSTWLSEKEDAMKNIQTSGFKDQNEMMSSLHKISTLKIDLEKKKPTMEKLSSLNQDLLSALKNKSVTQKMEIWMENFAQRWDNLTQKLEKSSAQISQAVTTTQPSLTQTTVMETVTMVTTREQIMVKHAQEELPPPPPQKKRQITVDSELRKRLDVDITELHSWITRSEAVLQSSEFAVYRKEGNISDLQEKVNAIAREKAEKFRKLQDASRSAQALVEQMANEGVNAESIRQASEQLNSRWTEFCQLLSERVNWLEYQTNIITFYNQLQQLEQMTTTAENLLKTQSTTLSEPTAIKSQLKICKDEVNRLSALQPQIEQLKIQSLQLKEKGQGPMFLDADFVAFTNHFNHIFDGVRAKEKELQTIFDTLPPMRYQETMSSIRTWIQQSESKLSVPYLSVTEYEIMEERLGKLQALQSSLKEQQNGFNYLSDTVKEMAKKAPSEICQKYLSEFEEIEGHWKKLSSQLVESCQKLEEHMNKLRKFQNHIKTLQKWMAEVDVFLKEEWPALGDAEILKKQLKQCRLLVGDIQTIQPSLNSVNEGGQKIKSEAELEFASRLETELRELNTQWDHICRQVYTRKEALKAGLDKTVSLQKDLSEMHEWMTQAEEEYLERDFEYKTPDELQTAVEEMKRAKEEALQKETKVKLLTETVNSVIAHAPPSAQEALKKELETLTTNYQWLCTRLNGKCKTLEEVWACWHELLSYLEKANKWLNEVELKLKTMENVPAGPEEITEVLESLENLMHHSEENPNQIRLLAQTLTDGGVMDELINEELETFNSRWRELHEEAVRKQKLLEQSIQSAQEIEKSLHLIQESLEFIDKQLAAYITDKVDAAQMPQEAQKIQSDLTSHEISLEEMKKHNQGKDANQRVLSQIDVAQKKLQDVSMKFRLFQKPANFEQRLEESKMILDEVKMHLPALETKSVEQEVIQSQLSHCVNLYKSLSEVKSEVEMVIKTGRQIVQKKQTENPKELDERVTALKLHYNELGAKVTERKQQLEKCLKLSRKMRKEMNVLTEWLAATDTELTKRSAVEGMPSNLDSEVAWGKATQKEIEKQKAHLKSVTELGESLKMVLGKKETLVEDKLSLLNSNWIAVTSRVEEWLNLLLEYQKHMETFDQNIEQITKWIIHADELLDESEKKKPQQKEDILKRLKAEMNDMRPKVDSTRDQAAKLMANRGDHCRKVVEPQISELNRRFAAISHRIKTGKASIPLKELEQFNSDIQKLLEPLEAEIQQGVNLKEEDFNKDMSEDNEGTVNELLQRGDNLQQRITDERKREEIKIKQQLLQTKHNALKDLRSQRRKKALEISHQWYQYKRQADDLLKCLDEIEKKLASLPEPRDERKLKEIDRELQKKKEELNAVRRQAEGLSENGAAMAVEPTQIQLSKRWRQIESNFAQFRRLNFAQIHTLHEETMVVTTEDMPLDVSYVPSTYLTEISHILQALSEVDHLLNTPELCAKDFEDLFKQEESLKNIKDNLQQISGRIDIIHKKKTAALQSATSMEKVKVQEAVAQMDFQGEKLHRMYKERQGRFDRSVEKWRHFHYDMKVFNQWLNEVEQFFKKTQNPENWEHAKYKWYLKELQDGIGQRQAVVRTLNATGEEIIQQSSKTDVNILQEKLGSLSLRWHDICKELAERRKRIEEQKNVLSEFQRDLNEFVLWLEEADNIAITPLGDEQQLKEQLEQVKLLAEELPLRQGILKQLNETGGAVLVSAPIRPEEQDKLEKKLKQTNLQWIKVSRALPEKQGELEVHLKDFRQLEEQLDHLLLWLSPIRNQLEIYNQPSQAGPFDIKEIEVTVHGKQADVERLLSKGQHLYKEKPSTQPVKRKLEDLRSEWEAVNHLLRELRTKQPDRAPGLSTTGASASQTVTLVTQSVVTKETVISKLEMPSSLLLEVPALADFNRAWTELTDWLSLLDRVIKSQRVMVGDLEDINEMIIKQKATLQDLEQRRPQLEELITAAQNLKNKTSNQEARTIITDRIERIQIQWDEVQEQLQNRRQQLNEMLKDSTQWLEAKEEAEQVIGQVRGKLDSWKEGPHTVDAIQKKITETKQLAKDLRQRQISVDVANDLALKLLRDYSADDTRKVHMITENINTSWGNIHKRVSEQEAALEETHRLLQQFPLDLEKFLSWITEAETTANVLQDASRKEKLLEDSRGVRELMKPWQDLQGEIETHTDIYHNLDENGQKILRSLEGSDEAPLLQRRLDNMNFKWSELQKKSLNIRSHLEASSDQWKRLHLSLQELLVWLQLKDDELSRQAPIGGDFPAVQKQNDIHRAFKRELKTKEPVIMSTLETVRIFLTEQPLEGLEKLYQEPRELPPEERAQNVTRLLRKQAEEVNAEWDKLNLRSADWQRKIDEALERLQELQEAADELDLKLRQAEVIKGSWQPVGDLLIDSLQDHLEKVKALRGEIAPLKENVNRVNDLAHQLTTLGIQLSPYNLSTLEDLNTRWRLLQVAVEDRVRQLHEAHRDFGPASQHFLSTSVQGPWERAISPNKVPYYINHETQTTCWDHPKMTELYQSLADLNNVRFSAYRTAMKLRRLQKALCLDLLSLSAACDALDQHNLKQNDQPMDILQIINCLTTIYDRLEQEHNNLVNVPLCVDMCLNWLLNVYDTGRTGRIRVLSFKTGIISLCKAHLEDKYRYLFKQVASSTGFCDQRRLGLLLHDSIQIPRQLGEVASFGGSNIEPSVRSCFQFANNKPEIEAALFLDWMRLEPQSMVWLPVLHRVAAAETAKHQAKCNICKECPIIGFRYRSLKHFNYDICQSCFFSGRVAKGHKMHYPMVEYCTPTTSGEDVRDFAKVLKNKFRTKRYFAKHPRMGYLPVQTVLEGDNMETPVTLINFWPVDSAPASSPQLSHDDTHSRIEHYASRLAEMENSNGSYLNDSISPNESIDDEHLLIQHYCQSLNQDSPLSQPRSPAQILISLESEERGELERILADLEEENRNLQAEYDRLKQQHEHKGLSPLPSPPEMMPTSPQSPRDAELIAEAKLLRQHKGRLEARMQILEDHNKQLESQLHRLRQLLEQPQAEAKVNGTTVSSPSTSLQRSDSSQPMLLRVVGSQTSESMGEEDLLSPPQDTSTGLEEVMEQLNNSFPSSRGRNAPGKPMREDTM
For the compound `Cc1nc(NC(=N)NCCCN2CCCC2)nc(-c2ccoc2)c1C`, the outcome was Active.

The target is the same in another experiment. Kind of experiment: Induction of read through activity at dystrophin in mouse H2K mdx cells assessed as increase in production of full length dystrophin protein by measuring fold change at 0.01 to 100 uM by MSD assay. In kind it is cell-based. Conditions: filed as activator, dose 0.01-100 µM.
As for `N=C(NCCCN1CCCCC1)Nc1nc2c(c(-c3ccoc3)n1)CCC2`, the fold change (FC) came to 3.

Another experiment has the same target. Kind of experiment: Induction of read through activity at dystrophin in mouse H2K mdx cells assessed as increase in production of full length dystrophin protein at <2 uM by MSD assay. In kind it is cell-based. Conditions: filed as activator.
In the case of `N=C(NCCCN1CCCCC1)Nc1nc2c(c(-c3ccoc3)n1)CCC2`, the result was Active.

The target is the same in the next experiment. Nature of the experiment: Induction of read through activity at dystrophin in mouse H2K mdx cells assessed as increase in production of full length dystrophin protein at 0.6 to 20 uM by western blot assay. Conditions: filed as activator, dose 0.6-20 µM. Type of experiment: cell-based. (In general: Immunoblotting shows a protein as a band on a membrane.)
Take `Cc1nc(NC(=N)NCCCN2CCCC2)nc(-c2ccoc2)c1C`: the result was Active.

The target is the same in another experiment. Kind of experiment: Induction of read through activity at dystrophin in mouse H2K mdx cells assessed as increase in production of full length dystrophin protein at 0.07 to 2 uM by western blot assay. Conditions: filed as activator, dose 0.07-2 µM. In kind it is cell-based.
As for `N=C(NCCCN1CCCCC1)Nc1nc2c(c(-c3ccoc3)n1)CCC2`, the result was Active.

In another experiment the test system is Premature termination codon. Nature of the experiment: Induction of read through activity at T-p53 R213X mutant premature termination codon in human HDQ-P1 cells assessed as increase in production of full length p53 protein by MSD assay.
Conditions: not given
In kind it is cell-based.
`Cc1nc(NC(N)=O)nc2cc(Cl)ccc12`: the EC2 was above 100 µM.

In the case of `Cc1ccc2c(C)cc(NC(=N)N)nc2c1`, the EC2 is above 100 µM.

In the case of `Cc1nc(NC(=N)NCCCN(C)CC(F)(F)F)nc2ccccc12`, the EC2 was above 30 µM.

Turning to `C/N=C(/NCCCN(C)C)Nc1nc(C)c2ccccc2n1`, the EC2 was above 30 µM.

In the case of `Cc1nc(NC(=N)NCCCN(C)CC(=O)O)nc2ccccc12`, the EC2 is above 30 µM.

Regarding `Cc1nc(NC(=N)NCC(=O)O)nc2cc(F)ccc12`, the EC2 was above 100 µM.

For the compound `Cc1nc(N)nc2ccccc12`, the EC2 is above 100 µM.

Take `Cc1nc(NC(=N)N(C)CCCN(C)C)nc2ccccc12`: the EC2 was above 30 µM.

In the case of `Cc1ccc2cnc(NC(=N)N)nc2c1`, the EC2 is above 100 µM.

Take `Cc1nc(NC(=N)NCC(F)(F)CN(C)C)nc2ccccc12`: the EC2 is above 30 µM.

As for `Cc1nc(NC(=N)N)cc2ccccc12`, the EC2 is above 100 µM.

Take `Cc1nc(NS(N)(=O)=O)nc2cc(Cl)ccc12`: the EC2 is above 100 µM.

As to `Cc1nc(NC(=N)Nc2cccc(N(C)C)c2)nc2cc(Cl)ccc12`, the EC2 is above 30 µM.

Consider `Cc1nc(NC(=N)NCCCN2CCCC2)nc(C)c1-c1ccoc1`, for which the EC2 was above 30 µM.

For `Cc1ccnc(NC(=N)NCCCN(C)C)n1`, the EC2 was above 30 µM.

Still in this experiment, the particulars now being: filed as activator.
Regarding `Cc1cc(-c2ccccc2)nc(NC(=N)NCCCN(C)C)n1`, the EC2 came to 7.3 µM.

`CN(C)CCCNC(=N)Nc1nc2c(c(-c3ccoc3)n1)CCCCCC2`: the EC2 is 2.7 µM.

`Cc1nc(N=C(N)N)nc2cc(Cl)ccc12`: the EC2 is 6.3 µM.

With `Cc1nc(NC(=N)NCCCN(C)C)nc(-c2ccoc2)c1C`, the EC2 worked out at 1.3 µM.

For the compound `Cc1nc(NC(=N)N)nc2ccccc12`, the EC2 was 20 µM.

For the compound `Cc1ccc2c(C)nc(NC(=N)NCCCN(C)C)nc2c1`, the EC2 worked out at 1.1 µM.

For `Cc1nc(NC(=N)NCCCN2CCCC2)nc2ccccc12`, the EC2 came to 2.1 µM.

For `CCNC(=N)Nc1nc(C)c2ccc(Cl)cc2n1`, the EC2 turned out to be 21 µM.

With `Cc1nc(NC(=N)NCCCc2ccccc2)nc2ccccc12`, the EC2 came out at 47 µM.

Regarding `Cc1nc(NC(=N)NCCCN(C)[C@H](C)c2ccccc2)nc2ccccc12`, the EC2 is 1.8 µM.

For `COc1cccc(NC(=N)Nc2nc(C)c3ccccc3n2)c1`, the EC2 was 21 µM.

With `Cc1ccc2c(C)nc(NC(=N)NCCCN3CCCC3)nc2c1`, the EC2 was found to be 1 µM.

For `Cc1nc(NC(=N)NCCO)nc2cc(F)ccc12`, the EC2 came out at 26 µM.

As to `CCc1c(C)nc(NC(=N)NCCCN2CCCC2)nc1-c1ccoc1`, the EC2 was 3.2 µM.

Take `N=C(NCCCN1CCCC1)Nc1nc2c(c(-c3ccoc3)n1)CCC2`: the EC2 is 0.44 µM.

For the compound `Cc1cccc2nc(NC(=N)N[C@@H]3CCN(C)C3)nc(C)c12`, the EC2 is 0.34 µM.

With `Cc1cccc2nc(NC(=N)N[C@H]3CCN(C)C3)nc(C)c12`, the EC2 amounted to 1 µM.

With `Cc1ccc2c(C)nc(NC(=N)N)nc2c1`, the EC2 amounted to 10 µM.

Turning to `Cc1nc(NC(=N)NCCCN2CCCCC2)nc2cc(F)ccc12`, the EC2 amounted to 0.68 µM.

Take `Cc1nc(NC(=N)NCCCN2CCCC2)nc(-c2ccoc2)c1F`: the EC2 was 1.6 µM.

With `CN(C)CCCNC(=N)Nc1nc(-c2ccoc2)c2ccsc2n1`, the EC2 worked out at 1.3 µM.

On to `CN(C)CCCNC(=N)Nc1ncc2ccccc2n1`, for which the EC2 was found to be 7.5 µM.

As for `Cc1nc(N=C(N)N)nc2cc(F)ccc12`, the EC2 was found to be 13 µM.

`CNC(=N)Nc1nc(C)c2ccc(C)cc2n1`: the EC2 came out at 7.7 µM.

As to `COCCNC(=N)Nc1nc(C)c2ccc(C)cc2n1`, the EC2 is 12 µM.

In the case of `CCN(CC)CCCNC(=N)Nc1nc(C)c2ccc(F)cc2n1`, the EC2 amounted to 2.2 µM.

Regarding `Cc1nc(NC(=N)NCCCN)nc2cc(F)ccc12`, the EC2 was 9.8 µM.

Turning to `Cc1nc(NC(=N)NCCCN2CCCC2)nc(-c2ccsc2)c1C`, the EC2 worked out at 1.4 µM.

Take `Cc1nc(NC(=N)NCCCN(C)C)nc2cc(F)ccc12`: the EC2 was 1.1 µM.

As to `Cc1nc(NC(=N)NC2CCCC(N(C)C)C2)nc2cc(F)ccc12` (stereo not given), the EC2 is 5.5 µM.

Turning to `Cc1nc(NC(=N)N[C@H](C)CCN(C)C)nc2ccccc12`, the EC2 amounted to 2.5 µM.

`Cc1nc(NC(=N)NCCCN(C)CC2CCC2)nc2cc(F)ccc12`: the EC2 was determined as 1.1 µM.

Take `Cc1nc(NC(=N)NCCCN(C)[C@@H](C)c2ccccc2)nc2ccccc12`: the EC2 was 2.2 µM.

`Cc1ccc2nc(NC(=N)NCCCN3CCCC3)nc(C)c2c1`: the EC2 stood at 2.3 µM.

For `CN(C)CCCNC(=N)Nc1nc(-c2ccoc2)c2occc2n1`, the EC2 amounted to 2 µM.

`CN(C)CCCNC(=N)Nc1nc(-c2ccoc2)c2sccc2n1`: the EC2 is 0.7 µM.

For the compound `Cc1cccc2nc(NC(=N)NCCCN3CCCC3)nc(C)c12`, the EC2 is 0.84 µM.

For `N=C(NCCCN1CCCCC1)Nc1nc2c(c(-c3ccoc3)n1)CCC2`, the EC2 came to 0.4 µM.

`Cc1cc(-c2ccoc2)nc(NC(=N)NCCCN(C)C)n1`: the EC2 amounted to 3 µM.

For `Cc1cccc2nc(NC(=N)N[C@H]3CCNC3)nc(C)c12`, the EC2 was determined as 2.2 µM.

`Cc1nc(NC(=N)NCCCN2CCN3CCCCC3C2)nc2cc(F)ccc12` (stereo not given): the EC2 came out at 3.5 µM.

Regarding `Cc1nc(NC(=N)NCCCN2CCCC2)nc(-c2ccoc2)c1C(F)(F)F`, the EC2 was 15 µM.

Turning to `CN[C@@H]1[C@@H](O)[C@@H](O[C@@H]2[C@@H](O)[C@H](O[C@H]3O[C@H]([C@H](C)O)[C@@H](O)[C@H](O)[C@H]3N)[C@@H](N)C[C@H]2N)OC[C@]1(C)O`, the EC2 is 8.5 µM.

Turning to `Cc1nc(NC(=N)NCCCN2CCCC2)nc2c(C)cccc12`, the EC2 amounted to 0.55 µM.

Regarding `Cc1nc(NC(=N)NCC2(CN(C)C)CCCC2)nc2cc(F)ccc12`, the EC2 turned out to be 16 µM.

Turning to `Cc1nc(NC(=N)NCCCN2CCCC2)nc(-c2ccco2)c1C`, the EC2 worked out at 0.56 µM.

As for `Cc1nc(NC(=N)NCCCN2CCCC2)nc(-c2ccoc2)c1Br`, the EC2 is 0.96 µM.

Consider `Cc1nc(NC(=N)NCCCN(C)C)nc2cc(F)cc(F)c12`, for which the EC2 amounted to 2.9 µM.

With `Cc1nc(NC(=N)NCCCN(C)C)nc2cc(Cl)ccc12`, the EC2 was determined as 0.85 µM.

For `CCc1cc(C)nc(NC(=N)NCCCN(C)C)n1`, the EC2 was 17 µM.

Consider `Cc1nc(NC(=N)NCCCN2CCCC2)nc(-c2ccoc2)c1C`, for which the EC2 is 1.2 µM.

As for `Cc1nc(NC(=N)NCCCN2CCCC2)nc(-c2ccoc2)c1Cl`, the EC2 came to 0.77 µM.

For `Cc1nc(NC(=N)NCCCN(C)C)nc2ccccc12`, the EC2 turned out to be 1.7 µM.

`Cc1nc(NC(=N)NCCCN2CCOCC2)nc2cc(F)ccc12`: the EC2 worked out at 4.7 µM.

With `CN1CCC(NC(=N)Nc2nc3c(c(-c4ccoc4)n2)CCC3)CC1`, the EC2 is 0.22 µM.

For `Cc1nc(NC(=N)NCCCN2CCC3(CCC3)C2)nc2cc(F)ccc12`, the EC2 amounted to 2.3 µM.

With `Cc1nc(NC(=N)NCCCN2CCCC2)nc2cc(F)ccc12`, the EC2 was found to be 1.5 µM.

Turning to `CN(C)CCCNC(=N)Nc1nc2c(c(-c3ccoc3)n1)COC2`, the EC2 was 2.4 µM.

For `Cc1cccc2nc(NC(=N)NC3CCNCC3)nc(C)c12`, the EC2 came to 1.1 µM.

For the compound `Cc1cccc2nc(NC(=N)N[C@@H]3CCNC3)nc(C)c12`, the EC2 amounted to 1.3 µM.

On to `Cc1nc(NC(=N)NCCCCCN(C)C)nc2cc(F)ccc12`, for which the EC2 was 6.6 µM.

As to `Cc1nc(NC(=N)NCCCN(C)C)nc2cccc(F)c12`, the EC2 was found to be 0.92 µM.

On to `Cc1ccc2c(C)nc(NC(=N)NCCOCCO)nc2c1`, for which the EC2 was 48 µM.

In the case of `Cc1nc(NC(=N)NCCCCCCN(C)C)nc2cc(F)ccc12`, the EC2 was determined as 17 µM.

For the compound `Cc1nc(NC(=N)NCCN(C)C)nc2cc(F)ccc12`, the EC2 worked out at 3.9 µM.

Take `CN(C)CCCNC(=N)Nc1nc2c(c(-c3ccoc3)n1)CCCCC2`: the EC2 amounted to 3.5 µM.

In the case of `CN(C)CCCNC(=N)Nc1nc2c(c(-c3ccoc3)n1)CCCC2`, the EC2 was 1.1 µM.

Consider `Cc1nc(NC(=N)NCCCN2CCCC2)nc(-c2cccs2)c1C`, for which the EC2 was found to be 0.42 µM.

Consider `Cc1nc(NC(=N)NCCCCN(C)C)nc2cc(F)ccc12`, for which the EC2 came out at 2.2 µM.

In the case of `CN(C)CCCNC(=N)Nc1nc2c(c(-c3ccoc3)n1)CCC2`, the EC2 was found to be 0.44 µM.

Consider `CN1CCC(NC(=N)Nc2nc3c(c(-c4ccco4)n2)CCC3)CC1`, for which the EC2 came to 0.12 µM.

For `CNCCCNC(=N)Nc1nc(C)c2ccc(F)cc2n1`, the EC2 was found to be 2.5 µM.

On to `CN(C)CCCNC(=N)Nc1nc(-c2ccccc2)c2ccccc2n1`, for which the EC2 was 7.5 µM.

Turning to `Cc1cccc2nc(NC(=N)NC3CCN(C)CC3)nc(C)c12`, the EC2 is 0.51 µM.

With `N=C(NCCCN1CCC1)Nc1nc2c(c(-c3ccoc3)n1)CCC2`, the EC2 was determined as 0.44 µM.
